Columns and labels:
Assay type in all cases: cell-based
MOLT-4 = test: NCI-60 one-dose screen; settings: Homo sapiens; MOLT-4, Leukemia panel; single dose 10^−5 M; read-out: Growth inhibition %
UACC-257 = test: NCI-60 one-dose screen; settings: Homo sapiens; UACC-257, Melanoma panel; single dose 10^−5 M; read-out: Growth inhibition %
COLO 205 = test: NCI-60 one-dose screen; settings: Homo sapiens; COLO 205, Colon Cancer panel; single dose 10^−5 M; read-out: Growth inhibition %
NCI-H226 = test: NCI-60 one-dose screen; settings: Homo sapiens; NCI-H226, Non-small cell lung panel; single dose 10^−5 M; read-out: Growth inhibition %
HOP-92 = test: NCI-60 one-dose screen; settings: Homo sapiens; HOP-92, Non-small cell lung panel; single dose 10^−5 M; read-out: Growth inhibition %
SK-OV-3 = test: NCI-60 one-dose screen; settings: Homo sapiens; SK-OV-3, Ovarian Cancer panel; single dose 10^−5 M; read-out: Growth inhibition %
HCC-2998 = test: NCI-60 one-dose screen; settings: Homo sapiens; HCC-2998, Colon Cancer panel; single dose 10^−5 M; read-out: Growth inhibition %
OVCAR-8 = test: NCI-60 one-dose screen; settings: Homo sapiens; OVCAR-8, Ovarian Cancer panel; single dose 10^−5 M; read-out: Growth inhibition %
SK-MEL-5 = test: NCI-60 one-dose screen; settings: Homo sapiens; SK-MEL-5, Melanoma panel; single dose 10^−5 M; read-out: Growth inhibition %
NCI-H460 = test: NCI-60 one-dose screen; settings: Homo sapiens; NCI-H460, Non-small cell lung panel; single dose 10^−5 M; read-out: Growth inhibition %
MDA-MB-231/ATCC = test: NCI-60 one-dose screen; settings: Homo sapiens, Breast Cancer panel, single dose 10^−5 M, read-out: Growth inhibition %
K-562 = test: NCI-60 one-dose screen; settings: Homo sapiens, K562; K-562, Leukemia panel; single dose 10^−5 M; read-out: Growth inhibition %
HCT-116 = test: NCI-60 one-dose screen; settings: Homo sapiens, read-out: Growth inhibition %
RXF 393 = test: NCI-60 one-dose screen; settings: Homo sapiens; RXF 393, Renal Cancer panel; single dose 10^−5 M; read-out: Growth inhibition %
SNB-75 = test: NCI-60 one-dose screen; settings: Homo sapiens; SNB-75, CNS Cancer panel; single dose 10^−5 M; read-out: Growth inhibition %
EKVX = test: NCI-60 one-dose screen; settings: Homo sapiens, Non-small cell lung panel, single dose 10^−5 M, read-out: Growth inhibition %
M14 = test: NCI-60 one-dose screen; settings: Homo sapiens; M14, Melanoma panel; single dose 10^−5 M; read-out: Growth inhibition %
NCI-H522 = test: NCI-60 one-dose screen; settings: Homo sapiens; NCI-H522, Non-small cell lung panel; single dose 10^−5 M; read-out: Growth inhibition %
A498 = test: NCI-60 one-dose screen; settings: Homo sapiens; A498, Renal Cancer panel; single dose 10^−5 M; read-out: Growth inhibition %
UO-31 = test: NCI-60 one-dose screen; settings: Homo sapiens; UO-31, Renal Cancer panel; single dose 10^−5 M; read-out: Growth inhibition %
SN12C = test: NCI-60 one-dose screen; settings: Homo sapiens, Renal Cancer panel, single dose 10^−5 M, read-out: Growth inhibition %
SF-539 = test: NCI-60 one-dose screen; settings: Homo sapiens; SF-539, CNS Cancer panel; single dose 10^−5 M; read-out: Growth inhibition %
BT-549 = test: NCI-60 one-dose screen; settings: Homo sapiens; BT-549, Breast Cancer panel; single dose 10^−5 M; read-out: Growth inhibition %
NCI-H23 = test: NCI-60 one-dose screen; settings: Homo sapiens; NCI-H23, Non-small cell lung panel; single dose 10^−5 M; read-out: Growth inhibition %
U251 = test: NCI-60 one-dose screen; settings: Homo sapiens, U-251; U251, CNS Cancer panel; single dose 10^−5 M; read-out: Growth inhibition %
OVCAR-4 = test: NCI-60 one-dose screen; settings: Homo sapiens; OVCAR-4, Ovarian Cancer panel; single dose 10^−5 M; read-out: Growth inhibition %
SW-620 = test: NCI-60 one-dose screen; settings: Homo sapiens; SW-620, Colon Cancer panel; single dose 10^−5 M; read-out: Growth inhibition %
HOP-62 = test: NCI-60 one-dose screen; settings: Homo sapiens; HOP-62, Non-small cell lung panel; single dose 10^−5 M; read-out: Growth inhibition %
ACHN = test: NCI-60 one-dose screen; settings: Homo sapiens, Renal Cancer panel, single dose 10^−5 M, read-out: Growth inhibition %
A549/ATCC = test: NCI-60 one-dose screen; settings: Homo sapiens, Non-small cell lung panel, single dose 10^−5 M, read-out: Growth inhibition %
MALME-3M = test: NCI-60 one-dose screen; settings: Homo sapiens, Melanoma panel, single dose 10^−5 M, read-out: Growth inhibition %
[1] = test system: panel of 60 human tumor cell lines; test: NCI 60-cell line one-dose screen (mean); settings: mean of the 60 cell lines, single dose 10^−5 M, read-out: Mean % Growth Inhibition
Method in brief: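 Compounds were tested at a single concentration of 10^−5 M against the NCI Developmental Therapeutic Program's 60 human tumour cell lines covering 9 tissue types. Activity is expressed as percent growth inhibition.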

Row | Compound | inhibition at 10 µM (MOLT-4) [%] | inhibition at 10 µM (UACC-257) [%] | inhibition at 10 µM (COLO 205) [%] | inhibition at 10 µM (NCI-H226) [%] | inhibition at 10 µM (HOP-92) [%] | inhibition at 10 µM (SK-OV-3) [%] | inhibition at 10 µM (HCC-2998) [%] | inhibition at 10 µM (OVCAR-8) [%] | inhibition at 10 µM (SK-MEL-5) [%] | inhibition at 10 µM (NCI-H460) [%] | inhibition at 10 µM (MDA-MB-231/ATCC) [%] | inhibition at 10 µM (K-562) [%] | inhibition at 10 µM (HCT-116) [%] | inhibition at 10 µM (RXF 393) [%] | inhibition at 10 µM (SNB-75) [%] | inhibition at 10 µM (EKVX) [%] | inhibition at 10 µM (M14) [%] | inhibition at 10 µM (NCI-H522) [%] | inhibition at 10 µM (A498) [%] | inhibition at 10 µM (UO-31) [%] | further results
1 | Fc1ccc(CNc2c3ccccc3nc3ccccc23)cc1 [Compound 10, Acridin-9-yl-(4-fluorobenzyl)-amine] | 91.3 | 64 | 92.5 | 48.2 | 82.8 | 60 | 81.7 | 77.7 | 57.5 | 91.2 | 61.7 | 95.2 | 87.5 | 99.8 | 57.9 | 64.4 | 65.7 | 47.6 | 102 | 86.5 | inhibition at 10 µM (SN12C): 74.3%; inhibition at 10 µM (SF-539): 86.9%; inhibition at 10 µM (BT-549): 19.3%; inhibition at 10 µM (NCI-H23): 68.3%; inhibition at 10 µM (U251): 74.1%; inhibition at 10 µM (OVCAR-4): 66.8%; inhibition at 10 µM (SW-620): 77.2%; inhibition at 10 µM (HOP-62): 57%; inhibition at 10 µM (ACHN): 87.5%; inhibition at 10 µM (A549/ATCC): 76.3%; inhibition at 10 µM (MALME-3M): 74.3%; inhibition at 10 µM [1]: 72.3%
2 | Fc1ccc(CNc2c3ccccc3nc3ccccc23)c(F)c1 [Compound 21, Acridin-9-yl-(2,4-difluorobenzyl)-amine] | 76.2 | 31.1 | 73.2 | 45.2 | 103 | 40.2 | 58.7 | 59.8 | 30.6 | 80 | 55.6 | 77.5 | 85.8 | 65.5 | 18.9 | 54.5 | 44.7 | 57.7 | 104 | 69.7 | inhibition at 10 µM (SN12C): 62.8%; inhibition at 10 µM (SF-539): 67.6%; inhibition at 10 µM (BT-549): 17.2%; inhibition at 10 µM (NCI-H23): 57.2%; inhibition at 10 µM (U251): 55.9%; inhibition at 10 µM (OVCAR-4): 108%; inhibition at 10 µM (SW-620): 70.2%; inhibition at 10 µM (HOP-62): 42.8%; inhibition at 10 µM (ACHN): 76.5%; inhibition at 10 µM (A549/ATCC): 59.9%; inhibition at 10 µM (MALME-3M): 30.5%; inhibition at 10 µM [1]: 56.4%
3 | Fc1cccc(CNc2c3ccccc3nc3ccccc23)c1F [Compound 20, Acridin-9-yl-(2,3-difluorobenzyl)-amine] | 71.6 | 7.14 | 59.1 | 27.1 | 97.3 | 24.1 | 41.6 | 49.2 | 17 | 52 | 41.8 | 56.6 | 82.5 | 40.5 | 21.2 | 37.1 | 29.4 | 46.1 | 101 | 60 | inhibition at 10 µM (SN12C): 51%; inhibition at 10 µM (SF-539): 44.5%; inhibition at 10 µM (BT-549): 9.44%; inhibition at 10 µM (NCI-H23): 39.4%; inhibition at 10 µM (U251): 34.5%; inhibition at 10 µM (OVCAR-4): 50.1%; inhibition at 10 µM (SW-620): 58.6%; inhibition at 10 µM (HOP-62): 27.3%; inhibition at 10 µM (ACHN): 69.4%; inhibition at 10 µM (A549/ATCC): 43.3%; inhibition at 10 µM (MALME-3M): 5.87%; inhibition at 10 µM [1]: 40.7%
4 | COc1cccc(CNc2c3ccccc3nc3ccccc23)c1OC [Compound 16, Acridin-9-yl-(2,3-dimethoxybenzyl)-amine] | 82.2 | 45.2 | 78.5 | 48.4 | 102 | 34 | 61.7 | 60.8 | 44.2 | 88.4 | 58.1 | 84.5 | 88.2 | 70.1 | 32 | 63.7 | 65.5 | 59.9 | 104 | 74.8 | inhibition at 10 µM (SN12C): 69.1%; inhibition at 10 µM (SF-539): 81.1%; inhibition at 10 µM (BT-549): 40.3%; inhibition at 10 µM (NCI-H23): 67.6%; inhibition at 10 µM (U251): 65.5%; inhibition at 10 µM (OVCAR-4): 63.4%; inhibition at 10 µM (SW-620): 74.6%; inhibition at 10 µM (HOP-62): 48.8%; inhibition at 10 µM (ACHN): 78.9%; inhibition at 10 µM (A549/ATCC): 69.7%; inhibition at 10 µM (MALME-3M): 49.4%; inhibition at 10 µM [1]: 63.9%

From article PMC9866191, “Novel 9-Benzylaminoacridine Derivatives as Dual Inhibitors of Phosphodiesterase 5 and Topoisomerase II for the Treatment of Colon Cancer” (Molecules, 2023)
